In ChEMBL document CHEMBL1287722, “Azaindole N-methyl hydroxamic acids as HIV-1 integrase inhibitors-II. The impact of physicochemical properties on ADME and PK” (Bioorg Med Chem Lett, 2010):
Activity calls are given as the source filed them. The calls are words filed in the database; no cut-off is given here.

Experiments:
[1] = biological target: Human immunodeficiency virus type 1 integrase (Human immunodeficiency virus 1, UniProt Q7ZJM1); assay: Inhibition of HIV1 RF integrase after 50 mins by strand transfer scintillation proximity assay
[2] = Metabolic stability in human hepatocyte assessed as extraction ratio at 4 hrs; type: ADME, cell-based; settings: hepatocytes
[3] = Cytotoxicity against human CEM-SS cells by XTT assay; type: cell-based
[4] = system: Human immunodeficiency virus 1; assay: Antiviral activity against HIV1 RF infected in human CEM-SS cells assessed as inhibition of virus-induced cytopathic effect after 6 days by XTT assay; type: functional, organism-based; settings: Human immunodeficiency virus 1, RF, 144 h
[5] = Oral bioavailability in dog at 1 mg/kg, iv and 5 mg/kg, po; type: ADME, organism-based, Canis lupus familiaris; settings: in vivo
[6] = Half life in dog at 1 mg/kg, iv and 5 mg/kg, po; type: ADME, organism-based, Canis lupus familiaris; settings: in vivo
[7] = Plasma clearance in dog at 1 mg/kg, iv and 5 mg/kg, po; type: ADME, organism-based, Canis lupus familiaris
[8] = Volume of distribution at steady state in dog at 1 mg/kg, iv and 5 mg/kg, po; type: ADME, organism-based, Canis lupus familiaris; settings: in vivo, read-out: Vdss
Cytochrome P450 1A2 = biological target: T1, Cytochrome P450 1A2 (Homo sapiens, UniProt P05177); assay: Inhibition of CYP1A2; type: ADME
T1 sequence (P05177 whole entry): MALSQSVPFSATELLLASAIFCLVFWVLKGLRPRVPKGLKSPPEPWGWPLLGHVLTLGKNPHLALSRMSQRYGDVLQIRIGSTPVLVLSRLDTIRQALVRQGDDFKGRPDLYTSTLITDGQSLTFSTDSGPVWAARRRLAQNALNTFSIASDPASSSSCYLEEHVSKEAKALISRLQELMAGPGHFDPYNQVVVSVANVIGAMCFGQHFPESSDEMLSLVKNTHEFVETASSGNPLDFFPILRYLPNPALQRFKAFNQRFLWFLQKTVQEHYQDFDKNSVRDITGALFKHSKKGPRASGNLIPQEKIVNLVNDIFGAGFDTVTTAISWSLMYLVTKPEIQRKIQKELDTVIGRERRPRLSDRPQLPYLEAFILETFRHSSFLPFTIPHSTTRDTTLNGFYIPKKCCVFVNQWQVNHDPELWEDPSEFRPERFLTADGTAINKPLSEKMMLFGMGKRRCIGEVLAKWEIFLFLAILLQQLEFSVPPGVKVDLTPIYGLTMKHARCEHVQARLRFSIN

[9] = Blood clearance in human; type: ADME, organism-based; settings: whole blood
Cytochrome P450 2C9 = Cytochrome P450 2C9 (Homo sapiens, UniProt P11712); assay: Inhibition of CYP2C9; type: ADME
Cytochrome P450 3A4 = Cytochrome P450 3A4 (Homo sapiens, UniProt P08684); assay: Inhibition of CYP3A4; type: ADME
[10] = Oral bioavailability in human; type: ADME, organism-based; settings: in vivo
[11] = Inhibition of matrix metalloprotease
[12] = Volume of distribution at steady state in human; type: ADME, organism-based; settings: in vivo, read-out: Vdss
[13] = Inhibition of magnesium dependent protein kinase
Cytochrome P450 2C19 = Cytochrome P450 2C19 (Homo sapiens, UniProt P33261); assay: Inhibition of CYP2C19; type: ADME
Cytochrome P450 2D6 = Cytochrome P450 2D6 (Homo sapiens, UniProt P10635); assay: Inhibition of CYP2D6; type: ADME
[14] = biological target: Voltage-gated inwardly rectifying potassium channel KCNH2 (Homo sapiens, UniProt Q12809); assay: Inhibition of human ERG
Hepacivirus hominis = assay: Inhibition of HCV RNA-directed RNA polymerase
Cytochrome P450 2C8 = biological target: T2, Cytochrome P450 2C8 (Homo sapiens, UniProt P10632); assay: Inhibition of CYP2C8; type: ADME
T2 sequence (P10632 whole entry): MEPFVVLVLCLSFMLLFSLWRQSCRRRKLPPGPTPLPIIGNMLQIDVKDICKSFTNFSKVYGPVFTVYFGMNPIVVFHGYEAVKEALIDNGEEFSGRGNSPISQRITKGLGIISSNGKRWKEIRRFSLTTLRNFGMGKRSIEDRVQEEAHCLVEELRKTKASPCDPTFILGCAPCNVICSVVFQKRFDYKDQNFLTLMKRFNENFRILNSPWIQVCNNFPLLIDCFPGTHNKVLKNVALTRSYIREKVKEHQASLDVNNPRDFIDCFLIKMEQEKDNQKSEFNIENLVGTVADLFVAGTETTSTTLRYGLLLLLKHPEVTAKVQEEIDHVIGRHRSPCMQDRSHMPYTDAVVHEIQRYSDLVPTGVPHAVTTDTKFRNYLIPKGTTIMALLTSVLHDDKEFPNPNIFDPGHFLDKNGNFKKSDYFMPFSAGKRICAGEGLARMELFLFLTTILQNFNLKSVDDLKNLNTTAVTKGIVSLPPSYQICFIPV

Chain of Human immunodeficiency virus type 1 integrase (Q7ZJM1 whole entry): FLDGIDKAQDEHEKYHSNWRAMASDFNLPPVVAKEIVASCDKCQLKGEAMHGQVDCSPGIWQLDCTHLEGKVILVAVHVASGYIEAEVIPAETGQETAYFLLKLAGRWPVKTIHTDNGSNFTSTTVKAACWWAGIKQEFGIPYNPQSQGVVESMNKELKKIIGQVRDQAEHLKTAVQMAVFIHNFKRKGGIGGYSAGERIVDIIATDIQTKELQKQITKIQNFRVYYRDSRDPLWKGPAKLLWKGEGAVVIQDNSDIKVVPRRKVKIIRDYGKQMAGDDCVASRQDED
Chain of Cytochrome P450 2C19 (P33261 whole entry): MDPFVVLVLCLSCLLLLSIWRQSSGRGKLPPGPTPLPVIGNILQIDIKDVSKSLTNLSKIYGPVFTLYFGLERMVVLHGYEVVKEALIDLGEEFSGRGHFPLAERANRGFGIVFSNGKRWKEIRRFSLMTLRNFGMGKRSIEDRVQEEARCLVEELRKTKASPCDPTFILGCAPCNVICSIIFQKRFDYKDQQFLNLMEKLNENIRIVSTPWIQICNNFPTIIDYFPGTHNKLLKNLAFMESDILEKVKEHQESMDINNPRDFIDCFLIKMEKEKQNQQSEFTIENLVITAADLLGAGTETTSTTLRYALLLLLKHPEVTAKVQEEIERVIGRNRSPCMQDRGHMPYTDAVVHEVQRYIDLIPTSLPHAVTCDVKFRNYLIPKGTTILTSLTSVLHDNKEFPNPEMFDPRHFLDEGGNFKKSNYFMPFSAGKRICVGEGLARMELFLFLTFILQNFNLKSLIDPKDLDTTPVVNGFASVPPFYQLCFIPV
Chain of Voltage-gated inwardly rectifying potassium channel KCNH2 (Q12809 whole entry): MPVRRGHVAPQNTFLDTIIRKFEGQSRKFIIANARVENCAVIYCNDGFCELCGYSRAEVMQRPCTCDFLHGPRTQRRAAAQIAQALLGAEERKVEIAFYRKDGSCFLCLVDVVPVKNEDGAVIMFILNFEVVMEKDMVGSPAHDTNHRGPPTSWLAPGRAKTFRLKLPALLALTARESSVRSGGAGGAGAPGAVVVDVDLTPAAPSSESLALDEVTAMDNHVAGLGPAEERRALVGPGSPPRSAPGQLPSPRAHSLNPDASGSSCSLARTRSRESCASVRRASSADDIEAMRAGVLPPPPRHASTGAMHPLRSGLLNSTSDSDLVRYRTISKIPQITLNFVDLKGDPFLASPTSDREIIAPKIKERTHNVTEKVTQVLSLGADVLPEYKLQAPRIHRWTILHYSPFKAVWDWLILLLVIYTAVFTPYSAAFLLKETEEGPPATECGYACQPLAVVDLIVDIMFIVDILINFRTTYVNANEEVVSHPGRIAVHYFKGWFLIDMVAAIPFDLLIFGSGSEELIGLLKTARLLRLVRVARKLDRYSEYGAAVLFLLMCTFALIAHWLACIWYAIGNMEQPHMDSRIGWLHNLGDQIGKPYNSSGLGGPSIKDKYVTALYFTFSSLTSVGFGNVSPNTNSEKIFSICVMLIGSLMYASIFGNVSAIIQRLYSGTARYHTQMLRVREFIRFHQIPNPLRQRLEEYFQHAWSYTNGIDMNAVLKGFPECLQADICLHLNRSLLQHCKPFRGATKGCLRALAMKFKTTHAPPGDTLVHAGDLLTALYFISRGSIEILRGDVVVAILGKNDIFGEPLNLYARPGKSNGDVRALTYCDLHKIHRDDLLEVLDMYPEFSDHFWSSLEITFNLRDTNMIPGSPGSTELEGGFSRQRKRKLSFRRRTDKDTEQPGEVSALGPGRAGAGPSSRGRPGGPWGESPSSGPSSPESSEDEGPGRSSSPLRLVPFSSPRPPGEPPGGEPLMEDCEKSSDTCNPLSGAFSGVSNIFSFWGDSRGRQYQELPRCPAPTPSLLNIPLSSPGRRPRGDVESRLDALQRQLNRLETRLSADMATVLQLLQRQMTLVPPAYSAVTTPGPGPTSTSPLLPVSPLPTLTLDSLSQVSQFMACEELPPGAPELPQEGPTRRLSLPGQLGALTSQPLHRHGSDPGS
Chain of Cytochrome P450 2D6 (P10635 whole entry): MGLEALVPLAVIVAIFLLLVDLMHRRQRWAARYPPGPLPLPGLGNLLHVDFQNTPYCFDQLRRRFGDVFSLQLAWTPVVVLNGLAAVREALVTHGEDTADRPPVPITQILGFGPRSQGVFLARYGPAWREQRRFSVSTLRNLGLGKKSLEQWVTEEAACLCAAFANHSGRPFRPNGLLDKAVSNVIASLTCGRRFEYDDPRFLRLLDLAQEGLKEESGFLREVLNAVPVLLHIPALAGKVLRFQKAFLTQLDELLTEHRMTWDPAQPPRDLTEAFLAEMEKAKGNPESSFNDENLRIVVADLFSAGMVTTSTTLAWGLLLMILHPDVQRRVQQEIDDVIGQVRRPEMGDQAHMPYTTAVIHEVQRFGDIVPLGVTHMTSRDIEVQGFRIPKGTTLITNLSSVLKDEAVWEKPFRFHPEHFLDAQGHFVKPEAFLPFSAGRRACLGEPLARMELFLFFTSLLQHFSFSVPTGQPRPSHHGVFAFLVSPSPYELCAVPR
Chain of Cytochrome P450 3A4 (P08684 whole entry): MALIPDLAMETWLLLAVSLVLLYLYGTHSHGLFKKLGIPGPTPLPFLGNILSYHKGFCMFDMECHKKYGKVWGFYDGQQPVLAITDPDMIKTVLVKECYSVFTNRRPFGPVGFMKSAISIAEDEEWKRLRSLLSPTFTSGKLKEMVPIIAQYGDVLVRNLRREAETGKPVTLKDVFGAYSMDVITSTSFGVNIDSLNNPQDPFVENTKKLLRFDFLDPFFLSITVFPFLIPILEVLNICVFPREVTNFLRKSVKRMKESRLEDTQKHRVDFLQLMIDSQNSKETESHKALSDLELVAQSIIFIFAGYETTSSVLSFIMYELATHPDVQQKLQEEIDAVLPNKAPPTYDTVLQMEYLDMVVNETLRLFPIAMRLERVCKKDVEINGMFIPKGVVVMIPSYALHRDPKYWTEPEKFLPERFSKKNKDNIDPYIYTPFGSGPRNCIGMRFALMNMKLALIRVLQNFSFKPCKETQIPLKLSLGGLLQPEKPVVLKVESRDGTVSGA
Chain of Cytochrome P450 2C9 (P11712 whole entry): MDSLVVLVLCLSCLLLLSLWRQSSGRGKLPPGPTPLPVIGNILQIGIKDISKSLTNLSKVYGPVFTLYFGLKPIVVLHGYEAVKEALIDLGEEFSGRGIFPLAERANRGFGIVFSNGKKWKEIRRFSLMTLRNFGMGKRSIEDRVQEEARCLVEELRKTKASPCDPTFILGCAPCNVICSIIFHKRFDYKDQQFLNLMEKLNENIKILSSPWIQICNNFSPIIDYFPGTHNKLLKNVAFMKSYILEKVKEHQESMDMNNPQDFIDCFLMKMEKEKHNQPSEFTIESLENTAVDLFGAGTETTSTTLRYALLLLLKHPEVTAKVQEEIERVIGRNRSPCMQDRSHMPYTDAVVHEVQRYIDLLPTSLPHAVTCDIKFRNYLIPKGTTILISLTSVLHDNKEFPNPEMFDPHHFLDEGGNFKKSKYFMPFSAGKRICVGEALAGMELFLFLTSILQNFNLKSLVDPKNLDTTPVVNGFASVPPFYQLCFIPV

| Structure (SMILES) | IC50 [1] | hepatic extraction ratio at 4 h [2] | CC50 [3] | EC50 [4] | other results |
| --- | --- | --- | --- | --- | --- |
| CN(O)C(=O)c1cc2c(C(=O)N3CCC[C@@H]3CO)cn(Cc3ccc(F)cc3)c2cn1 | 0.319 µM | 0.2 | > 32 µM | 0.17 µM | – |
| CN(O)C(=O)c1cc2c(CN3CCC[C@@H]3C(N)=O)cn(Cc3ccc(F)cc3)c2cn1 | – | – | > 100 µM | 0.08 µM | – |
| CC(C)NC(=O)c1cn(Cc2ccc(F)cc2)c2cnc(C(=O)N(C)O)cc12 | 0.251 µM | 0.25 | > 100 µM | 0.11 µM | – |
| CN(O)C(=O)c1cc2c(COC3CCOCC3)cn(Cc3ccc(F)cc3)c2cn1 | 0.313 µM | 0.86 | > 100 µM | 0.057 µM | – |
| CN(O)C(=O)c1cc2c(CN3CCNC(=O)C3)cn(Cc3ccc(F)cc3)c2cn1 | 0.388 µM | 0.3 | > 100 µM | 0.15 µM | bioavailability [5]: 20%; half-life [6]: 1.27 h; clearance [7]: 1.44 L/h/kg; Vd [8]: 1.8 L/kg |
| CCOCCOCc1cn(Cc2ccc(F)cc2)c2cnc(C(=O)N(C)O)cc12 | 0.308 µM | 0.57 | 81 µM | 0.057 µM | – |
| CN(O)C(=O)c1cc2c(C(=O)NCCN3CCOCC3)cn(Cc3ccc(F)cc3)c2cn1 | 0.503 µM | 0.25 | 32 µM | 0.21 µM | – |
| COCCOCc1cn(Cc2ccc(F)cc2)c2cnc(C(=O)N(C)O)cc12 | 0.382 µM | 0.51 | > 100 µM | 0.029 µM | – |
| CN(O)C(=O)c1cc2c(CN3CCC[C@H]3C(N)=O)cn(Cc3ccc(F)cc3)c2cn1 | – | – | 216 µM | – | IC50 (Cytochrome P450 1A2): > 30 µM; clearance [9]: 0.33 L/h/kg; IC50 (Cytochrome P450 2C9): > 30 µM; bioavailability [5]: 53%; IC50 (Cytochrome P450 3A4): > 30 µM; bioavailability [10]: 41%; IC50 [11]: > 50 µM; Vd [12]: 2.15 L/kg; half-life [6]: 6.2 h; clearance [7]: 0.9 L/h/kg; IC50 [13]: > 1 µM; IC50 (Cytochrome P450 2C19): > 30 µM; IC50 (Cytochrome P450 2D6): > 30 µM; IC50 [14]: > 30 µM; inhibition (Hepacivirus hominis): inactive; Vd [8]: 2.32 L/kg; IC50 (Cytochrome P450 2C8): > 30 µM |
| CN(O)C(=O)c1cc2c(CO)cn(Cc3ccc(F)cc3)c2cn1 | 0.145 µM | 1 | > 266 µM | 0.054 µM | – |

More lines, main results first:

| IC50 [1] | hepatic extraction ratio at 4 h [2] | Structure (SMILES) | CC50 [3] | EC50 [4] | other results |
| --- | --- | --- | --- | --- | --- |
| 0.559 µM | 0.98 | CN(O)C(=O)c1cc2c(CCCN3CCOCC3)cn(Cc3ccc(F)cc3)c2cn1 | > 10 µM | 0.47 µM | – |
| 0.552 µM | 0.97 | COCCOCCCc1cn(Cc2ccc(F)cc2)c2cnc(C(=O)N(C)O)cc12 | > 10 µM | 0.22 µM | – |
| 0.34 µM | 1 | CN(O)C(=O)c1cc2c(CCCO)cn(Cc3ccc(F)cc3)c2cn1 | > 10 µM | 0.041 µM | – |
| 0.25 µM | – | CN(O)C(=O)c1cc2ccn(Cc3ccc(F)cc3)c2cn1 | 135 µM | – | – |
| 0.25 µM | – | CN(O)C(=O)c1cc2ccn(Cc3ccc(F)cc3F)c2cn1 | 200 µM | 0.039 µM | – |
| 0.534 µM | 0.55 | CN1CCN(Cc2cn(Cc3ccc(F)cc3)c3cnc(C(=O)N(C)O)cc23)CC1 | > 224 µM | 0.22 µM | – |
| 0.242 µM | 1 | COCc1cn(Cc2ccc(F)cc2)c2cnc(C(=O)N(C)O)cc12 | 266 µM | 0.041 µM | – |
| 1.42 µM | 0.55 | CN(O)C(=O)c1cc2c(CN3CCC(O)C3)cn(Cc3ccc(F)cc3)c2cn1 (stereo not given) | > 100 µM | 0.747 µM | – |
